The values that follow come from patent US11679100B2, “Methods of enhancing immunity” (The Regents of the University of California, priority 2018, dated 2023).

The subject of one test is LLC lung tumor. In words: LA1 treatment of subcutaneous LLC tumors. It is filed as in vivo, mice. The method, then:
LA1 treatment of LLC: 7.5×10^5 LLC cells were injected subcutaneously (s.c.) into the right flank of syngeneic 6- to 8-week old WT or CD11b^−/− mice. At 5-8 days post tumor inoculation, tumor-bearing mice were divided into the following treatment groups: Vehicle (6% DMSO, 1% Tween-20 in saline), LA1 (6 mg/kg dissolved in vehicle). Vehicle and LA1 was administered by intraperitoneal injection (i.p.) daily. Tumor burden was evaluated 2-3 times a week by caliper measurements and tumor volumes were calculated using the equation (l^2×w)/2. Tumors were harvested at 3 weeks post-tumor inoculation, formalin fixed, cryopreserved in OCT, or collagenase-digested for flow cytometric analysis.
Immunohistochemistry—Tumor samples were collected and cryopreserved in O.C.T. Sections (5 μm) were fixed in 100% cold acetone, blocked with 8% normal goat serum for 2 hours, and incubated with primary antibodies at […] for 2 hours at room temperature. Sections were washed 3 times with PBS and incubated with fluorescent secondary antibodies. Primary antibodies where: F4/80 (BM8, eBioscience), CD4 (H129.19, BD Bioscience), CD8 (53-6.7, BD Bioscience), CD31 (MEC13.1, BD Bioscience), desmin (RB0914-P1, LabVision, Thermo Scientific), and anti-smooth muscle actin (SMA) (1A4, Sigma-Aldrich). Slides were counterstained with 4′,6-diamidino-2-phenylindole (DAPI) to identify nuclei. Immunofluorescence images were collected on a Nikon microscope (Eclipse TE2000-U) and analyzed using Metamorph image capture and analysis software (Version 6.3r5, Molecular Devices). Pixels/field or cell number/field were quantified in five 100× fields from 5 biological replicates. For LA1 studies, immunohistochemical staining was quantified by counting marker positive cells in 3 different areas analyzed at 40× using a light microscope for each tumor tissue (n=4−6). Tissues that were stained with fluorochrome conjugated secondary antibodies were counter stained with DAPI and analyzed using the Zeiss 700 LSM confocal microscope and Zen software (Carl Zeiss Group, Hartford, Conn.).
Alternatively, immunostaining was performed on formalin fixed, paraffin-embedded tumor tissues. Deparaffinized tissue sections (5 μm) were either stained with hemotoxylin-eosin or were subjected to antigen retrieval by steam heating in an acidic pH solution (Citrate-based, Vector Laboratories) prior to immune staining for α-SMA (clone 1A4, Fisher Scientific), MMP9 (polyclonal rabbit, Abcam), S100A8 (goat polyclonal (M-19), Santa Cruz), CD31 (clone RM0032-1D12, Abcam), or ARG1 (sc-18351, Santa Cruz) at 4° C. overnight. Sections were washed and incubated with the appropriate fluorochrome conjugated secondary antibody (Invitrogen Life Technologies, Grand Island, N.Y.) or biotinylated secondary antibodies diluted in blocking buffer for 1 hr. at RT. For sections that were stained with biotinylated secondary antibodies, signal development was accomplished by using the DAB Substrate Kit (Vector Laboratories).
Flow Cytometry Staining and Analysis—Single cell suspensions (10^6 cells in 100 μL total volume) were incubated with Aqua Live Dead fixable stain (Life Technologies, Carlsbad, Calif.), FcR-blocking reagent (BD Biosciences, San Jose, Calif.) and fluorescently labeled antibodies and incubated at 4° C. for 1 h. Primary antibodies were: BV605-F4/80 (clone BM8, Biolegend #123133, 1.25 μg/ml), Alexa 700-CD45 (clone 30-F11, eBioscience #56-0451, ×0.6 μg/ml), CD11b-APC (clone M1/70, eBioscience #17-0012, 0.3 μg/ml), FITC-Gr1 (clone RB6-8C5, eBioscience #11-5931, 3 μg/ml), eF780-CD3 (clone 145-2C11, eBioscience #47-0031, 5 μg/ml), PE-Dazzle-CD4 (clone RM4-5, Biolegend #100565, 0.4 μg/ml), and BV605-CD8 (clone 53-6.7, Biolegend #100743, 1.75 μg/ml). Multicolor FACS Analysis was performed on a BD Canto RUO 11 Color Analyzer. All data analysis was performed using the flow cytometry analysis program FloJo (Treestar).

The target in a further test is T1, CD11b (Homo sapiens, UniProt P11215).
T1 construct: Human CD14+ monocytes were isolated from the PBMCs; endogenous in cells; host or cells: primary human CD14+ monocytes from whole-blood PBMCs
The experiment in a line: Cell adhesion assay on ICAM-1 coated substrates. The note with it: LA1 20 μM. In kind it is cell-based. The procedure:
Cell Adhesion Assay— PBMCs were extracted from human whole blood using the vendor instructions for Sep Mate-50 tubes (#15450, Stem Cell). Human CD14+ monocytes were isolated from the PBMCs using the vendor instructions for the EasySep™ Human Monocyte Isolation Kit (Catalog #19359, Stem Cell). Briefly, 384-well plates (#3700, Corning) were coated with recombinant human ICAM1 (750 ng/mL, #720-IC, R&D Systems), or M1/70 (10 ug/mL, #101202, Biolegend) or IB4 (10 μg/mL, #167-020, Ancell) overnight at 4° C. Wells were blocked with 1% milk dissolved in TBS for 1 hr at room temperature. All wells received Ca^2+/Mg^2+ ions (1 mM each physiological concentration, baseline control) except for the positive control wells that received 1 mM Mn^2+ ions. A stock solution of LA1 agonist was prepared by dissolving the compound in DMSO at a concentration of 2 mM and final dilution of LA1 in wells was 20 μM. The final concentration of DMSO in all wells was 1%. 45,000 human monocytes were seeded in each well. Some wells received human monocytes cells that were pre-blocked with anti-human CD11b (M1/70) for 15 min at 4° C. The plates were incubated at 37° C. for 30 min followed by 30 min of inversion at room temperature to remove non-adherent cells. Cells were fixed, stained with DAPI and counted using the Opera High Content Screening System (Perkin Elmer). Assays were performed in six replicate wells.

For the next test, the system named is CL66-luc tumor cell. The experiment in a line: Cytotoxicity assay, luciferase activity. It is filed as cell-based. To be noted: 24, 48 and 72 hrs. The procedure: Cytotoxicity Assay—Taxol and LA1 cytotoxicity towards the CL66-luc tumor cell was determined by measuring luciferase activity in the tumor cells after exposure to LA1 or Taxol. CL66-luc cells (1,000 cells/well) were seeded into 96-well plates overnight at 37° C. prior to treatment with titrating concentrations of LA1 or Taxol dissolved in 1% DMSO in IDMEM for 24, 48 and 72 hrs. Cells treated with vehicle (1% DMSO in IDMEM) were a negative control. Media was aspirated from the cultured cells and 100 μL of a 150 μg/mL working solution of D-Luciferin in pre-warmed DMEM (10% FBS) was added to each well. The plates were incubated at 37° C. for 5 mins prior to reading luminescence using the EnSpire Plate Reader (PerkinElmer).

Structures are written as SMILES.

Regarding `O=C(O)c1ccc(-c2ccc(/C=C3\SC(=S)N(Cc4ccccc4)C3=O)o2)cc1` [LA1, leukadherin 1], the “LLC lung tumor growth in Itgam-/- mice” value in the test with LLC lung tumor (LA1 6 mg/kg i.p. daily, Itgam-/- mice) is reported as “not in Itgam−/− mice”. In addition, the “LLC lung tumor growth in WT mice” value in the test on LLC lung tumor (LA1 6 mg/kg i.p. daily, WT mice) was “inhibited murine LLC lung tumor growth in WT”. For the same molecule, in the test with LLC lung tumor (LLC tumors), the “CD8+ T cells in tumors” value was “increased the presence of CD8+ T cells”; the “MHCII+ macrophages in tumors” value was “increased the presence of MHCII+ macrophages”; the “expression of S100A8 and MMP9 in CD11b+ cells” value is “inhibited expression of S100A8 and MMP9 in CD11b+ cells in LLC tumors”. Further, in the test with LLC lung tumor (tumors of FIGS. 5G, 5I and 5J (CL66, MDA-MB-231, LLC)), the “numbers of SMA+ blood vessels in tumors” value is “decreasing the numbers of SMA+blood vessels”. Moreover, the “myeloid cell adhesion to ICAM-1 coated substrates” value on CD11b is “stimulated myeloid cell adhesion to ICAM-1 coated substrates”. Also, in the test on CL66-luc tumor cell, the “CL66-Luc breast tumor cell growth in vitro” value is “no effect on CL66-Luc breast tumor cell growth in vitro”.
